Reference: US7342026B2, “Substituted quinolines for the treatment of protozoa and retrovirus co-infections” (priority 2001, dated 2008)
In brackets after ≈: the same amount, converted by molar mass. Read-outs that look alike come from different tables or passages of the source. Marks after values point to notes of the source that are not given here.

Experiments:
[1] = Cytotoxicity with respect to host CEM4fx cells (MTT bioconversion assay); format: cell-based; details: human, CEM4fx cells (host cells)
Procedure: (§1) Moreover, the cytotoxicity of the quinolines with respect to the host cells is measured by an MTT [3-(4,5-dimethylthiazol-2-yl)-2,5-diphenyltetrazolium bromide]bioconversion assay. All the assays are carried out in triplicate.

macrophages = assay: Cytotoxicity on macrophages; format: cell-based, BALB/c mice
Procedure: The macrophages, which will be used as host cells for the leishmania, are obtained after multiplication and differentiation of medullary precursors from BALB/c mice. This culture is prepared in the presence of supernatant from a conditioned line of fibroblasts L-929, and source of “Macrophage Colony Stimulating Factor”. After culturing for 5 days on a hydrophobic support, the adherent macrophages are recovered and then distributed in flat-bottomed 96-well plates for cell culture, in a proportion of 4×10^4 macrophages per well. The macrophages are then infected with purified amastigotes (4 parasites per macrophage) and incubated at 34° C. for 24 hours to allow development of parasitophorous vacuoles and multiplication of parasites. Under these conditions, more than 95% of the macrophages are infected.
The solutions of the substituted quinolines to be tested are prepared in DMSO before being added, at various concentrations, to the infected macrophage cultures.
The results obtained with the substituted quinolines, assigned Nos. 1, 2, 4, 6 to 11, 13 to 20, 23 to 34, 37 and 38 in Table I, are given in Table II below as regards their activity on the amastigotes of Leishmania amazonensis, of Leishmania donovani and of Leishmania infantum, and also their cytotoxicity with respect to the macrophages.

[2] = test system: circulating forms of Trypanosoma brucei (S427 strain); assay: microbe, parasite or virus in culture; format: cell-based; details: for IC50: read-out: T. brucei IC50
Procedure: d) Tests on the Circulating Forms of Trypanosoma brucei
The circulating forms of Trypanosoma brucei are cultured in MEM medium (minimum essential medium; GIBCO-BRL, No. 072-1100) to which Earle's salts have been added and supplemented with 1 mg/ml of glucose, 2.2 mg/ml of NaHCO3, 10 mM of Hepes, 2 mM of sodium pyruvate, 0.2 mM of 2-mercaptoethanol, 0.1 mM of hypoxanthine and 15% of inactivated horse serum.
The cultures are maintained at 37° C. in 24-well plates in a humid atmosphere (5% CO2-95% air) and the passages are carried out every 2 or 3 days at a density of 10^3 to 10^5 trypomastigotes per ml. The activity of the substituted quinolines is tested in triplicate in 96-well plates in which 10^3 parasites originating from an exponential growth phase are distributed per well, in the presence of the various solutions of substituted quinolines in a final volume of 200 μl. After culturing for 48 hours, the trypanocidal activity is assessed by counting, with a Neubauer cell, the number of live parasites per well.

[3] = test system: Leishmania infantum (MHOM/FR/91/LEM2259V); assay: Balb/c mice infected with visceral leishmaniasis (Leishmania infantum); format: in vivo; details: 10 days, quinolines oral 25 mg/kg/day, Glucantime subcutaneous 100 mg/kg/day; for Number of parasites in the liver per gram / Number of parasites in the spleen per gram: n=8; for % reduction in the number of parasites in the liver / % reduction in the number of parasites in the spleen: versus without treatment
Procedure: b) Tests Carried on Laboratory Animals Infected with Visceral Leishmaniasis (Leishmania infantum): 1/Laboratory Animals and Parasites
The Balb/c mice were infected with Leishmania infantum parasites at the promastigote stage (reference: MHOM/FR/91/LEM2259V), a strain isolated from a patient carrying AIDS. This strain is maintained in Schneider's drosophila culture medium (Gibco, USA) supplemented with 20% of fetal calf serum. The infectious promastigotes are cultured for 7 days and then counted. Each mouse is then infected intravenously with 0.2 ml of culture medium containing 10^7 promastigotes.
Counting of amastigotes forms in the liver and spleen.
After the treatments have been stopped and the animals sacrificed, the viscera, liver and spleen are weighed and collected in a Petri dish. Each organ is mounted several times on a degreased glass slide which, fixed and stained by the May-Grünwald-Giemsa technique, makes it possible to determine the number of amastigote forms per 500 nucleated cells.
The results are expressed in Table VI.

[4] = test system: HIV-1 (molecular clone pLN4-3); assay: microbe, parasite or virus in culture; format: cell-based, human immunodeficiency virus (HIV-1); details: read-out: Antiretroviral activity IC50
Source text: e) Tests on the Replication of HIV-1
CEM4fx cells are infected de novo with the molecular clone pLN4-3 of HIV-1, and simultaneously treated with the substituted quinolines to be tested, dissolved beforehand in DMSO. The virus multiplies for three days, and then the presence of infectious virions is detected in the culture supernatant (RPMI medium) by reinfecting “P4” cells which have a reporter gene which is expressed when they are infected with the virus. The viral load is quantified after culturing for 72 hours, by two methods: estimation of the viral load by infection of HeLa-βgal CD4^+ cells and determination of the amount of viral protein p24 by an ELISA assay.

[5] = test system: amastigotes of Leishmania amazonensis; assay: Amastigotes of Leishmania amazonensis in infected macrophages (leishmanicidal activity); format: cell-based; details: for L. amazonensis IC100: 100% inhibitory concentration, intracellular amastigotes in BALB/c macrophages, 30 hours after addition
Procedure: The strain of Leishmania amazonensis is maintained by successive passages in “nude” mice (nu/nu). The amastigotes are isolated from the lesions developed on the footpads, and purified according to the method described by Antoine et al. (Parasitology, 1989, 99: 1).
The leishmanicidal activity of the quinolines is determined 30 hours after addition of the solutions of substituted quinolines. It is based on a more or less large, or even complete, decrease, firstly, in the size of the parasitophorous vacuoles and, secondly, in the number of live intracellular amastigotes.

[6] = test system: amastigotes of Trypanosoma cruzi (Tulahuen strain); assay: Amastigotes of Trypanosoma cruzi in peritoneal macrophages; format: cell-based; details: for IC50: read-out: T. cruzi (amastigotes) IC50
Procedure: c) Tests on Amastigotes of Trypanosoma cruzi
Peritoneal macrophages from Balb/c mice are collected, washed in Dulbecco PBS and then distributed in 96-well plates in a proportion of 3×10^4 cells per 100 μl and per well, in RPMI-1640 medium supplemented with 10% FCS and antibiotics.
After 24 hours at 37° C., 10^5 trypomastigotes are added with serial 2-fold dilutions of the various substituted quinolines. The cultures are then incubated at 37° C. for 4 days in a humid atmosphere (5% CO2-95% air). After fixing, and then staining with Giemsa, the antiparasitic activity is assessed by counting the extracellular trypomastigotes and the intracellular amastigotes.

[7] = test system: Leishmania amazonensis (IFLA/BR/67/PH8); details: 15 days, quinolines oral 25 mg/kg/day, Glucantime subcutaneous 100 mg/kg (28 mg Sbv/kg)
Source text: a) Tests Carried Out on Laboratory Animals Infected with Cutaneous Leishmaniasis (Leishmania amazonensis):
The experimental animals are male or female approximately 6- to 8-week-old Balb/c mice weighing 18-24 g, subsequently reared for reproduction in the animal house of the Instituto de Investigaciones en Ciencias de la Salud (IICS), Asuncion, Paraguay. Golden hamsters (Mesocricetus auratus) are used to maintain these strains and as reservoirs for L. amazonensis parasites.
The Balb/c mice are infected with Leishmania amazonensis parasites, at the amastigote stage of the reference strain IFLA/BR/67/PH8, subcutaneously in the ventral pad of the right rear foot, the left foot remaining as a control. The amount of amastigotes inoculated is 2×10^6 amastigotes in 50 μl of phosphate buffer saline (PBS) for L. amazonensis.
The treatments begin once the infection is well established, mainly in general 5 to 6 weeks after inoculation of the L. amazonensis amastigotes. The reference medicinal product chosen is Glucantime® or meglumine antimoniate from Aventis (France).
The untreated control mice are given 50 μl of a solution of Tween 80 with PBS.
Measurement of the lesion: the diameters of the lesions on the infected foot and on the control foot are measured using a micrometer with 1/10 mm graduations, once a week for the duration of the experiment. The first measurements begin 48 hours after inoculation of the parasites. Calculating the difference in the two measurements gives the thickness of the lesion.
The 5 ml of puree obtained are centrifuged twice. The layer containing the amastigotes is subjected to counting of the number of parasites using a Neubauer cell. Five counts are performed on each amastigote layer. The number of amastigote forms is determined using the Stauber formula which takes into account the weight of the lesion: A/N×W×coefficient of the Neubauer cell • A=number of amastigotes, N=number of nuclei W=weight of the lesion
The results are expressed by the calculation of the arithmetic mean of the diameters of the lesions measured once a week and, at the end of the protocol, after sacrifice of the mice, of the weights of the lesions and of the number of amastigotes. A Student's test (t-test) is used for the statistical analysis of all the data. The comparison is made between “control” groups with a “treatment” group per pair. A value of P<0.05 is considered to be statistically significant.

[8] = test system: amastigotes of Leishmania donovani (MHOM/ET/67/L82); assay: microbe, parasite or virus in culture; format: cell-based
Source text: (§2) b) Tests on Amastigotes of Leishmania donovani and Leishmania infantum
(§3) The Leishmania donovani and Leishmania infantum strains are maintained by successive passages in golden hamsters. The amastigotes are isolated from the spleens of the infected hamsters and brought into contact with the purified macrophages.
(§4) Twenty-four hours after intraperitoneal injection of Balb/c mice with a 2% starch solution, the peritoneal macrophages of these mice are collected, washed in Dulbecco PBS and then distributed in Lab-tek® culture chambers, in a proportion of 4×10^4 cells per 100 μl per well in RPMI-1640 medium supplemented with 10% of FCS and antibiotics. After 24 hours at 37° C. in a humid atmosphere (5% CO2), the macrophages are brought into contact with purified amastigotes (3 parasites per macrophage) in a final volume of 200 μl for 4 hours. The medium is then removed in order to eliminate the extracellular parasites, and replaced with 100 μl of fresh medium.
(§5) Twenty-four hours after the beginning of infection, the solutions of substituted quinolines prepared as described in paragraph a) above are added and the leishmanicidal activity is determined after 48 hours by counting the number of parasites still alive in the fixed and Giemsa-stained cells.

[9] = test system: amastigotes of Leishmania infantum (IPZ229/1/89); assay: microbe, parasite or virus in culture; format: cell-based
Source text: as §2, §3, §4, §5

[10] = test system: amastigotes of Leishmania infantum (MHOM/MA(BE)67); assay: Amastigotes of Leishmania infantum (MHOM/MA(BE)67) in peritoneal macrophages; format: cell-based
CEM4fx cells = assay: Cytotoxicity with respect to host CEM4fx cells (MTT bioconversion assay); format: cell-based
Procedure: as §1

[11] = Trypanosoma cruzi, TULAHUEN, Peritoneal macrophage, in Mus musculus, 96 h
[12] = HIV-1 replication in CEM4fx cells, 72 hours
[13] = amastigotes in Balb/c peritoneal macrophages, 48 hours
[14] = Balb/c peritoneal macrophages, 4 days

Row | SMILES | Cytotoxicity on macrophages (macrophages; BALB/c, mouse) [µg/mL] | IC50 ([2]; Trypanosoma brucei, 48 h) [µM] | Number of parasites in the liver per gram [3] | Number of parasites in the spleen per gram [3] | % reduction in the number of parasites in the liver [3] [%] | % reduction in the number of parasites in the spleen [3] [%] | L. amazonensis IC100 [5] [µg/mL] | IC50 [6, 11] [µM] | IC50 (CEM4fx cells) [µM] | Cytotoxicity on macrophages (macrophages; macrophages from BALB/c mice) [µg/mL] | IC50 [4, 12] [µM] | IC50 [6, 14] [µM] | further results
1 | O=CC=Cc1ccc2ccccc2n1 [Quinoline 9, 3-(2-quinolyl)propenal] | 1.56 | 19 | 3.8 × 10^6 a, e per gram | 2.2 × 10^6 b per gram | −91.6 | −47.6 | 0.781 | 5 | – | – | – | – | IC50 [1]: 2 µM; IC50 ([4]; Human immunodeficiency virus 1, 72 h): 0.6 µM
2 | COC(=O)/C=C/c1ccc2ccccc2n1 [Quinoline 23, methyl E-3-(2-quinolyl)-2-propenoate] | 50 | 16 | 1.8 × 10^7 d per gram | 1.5 × 10^6 c, f per gram | −60.0 | −64.3 | 12.5 | 15 | – | – | – | – | activity on Trypanosoma brucei (in words) ([2]; comment on Table III): less advantageous; Mean of the number of parasites in the lesion per gram ([7]; n=8): 3.1 × 10^6 per gram; Weight of lesions (mean ± standard deviation) ([7]; n=8): 0.059 ± 0.010 g; % reduction in the number of parasites in the lesion ([7]; versus untreated controls): −88%**; IC50 ([8]; Leishmania donovani, Peritoneal macrophage, in Mus musculus, 48 h, read-out: L. donovani IC50): 3.3 to 30 µg/mL (≈ 15.5 to 141 µM); activity on Leishmania donovani (in words) ([8]; comment on Table II): marked activity; IC50 ([9]; Leishmania infantum, Peritoneal macrophage, in Mus musculus, 48 h, read-out: L. infantum (IPZ229/1/89) IC50): 0.4 to 2.2 µg/mL (≈ 1.88 to 10.3 µM); activity on the IPZ229/1/89 strain of Leishmania infantum (in words) ([9]; comment on Table II): marked activity; IC50 ([10]; Leishmania infantum, Peritoneal macrophage, in Mus musculus, 48 h, read-out: L. infantum (MHOM/MA (BE) 67) IC50): 26 µM; activity on the MHOM/MA(BE)67 strain of Leishmania infantum (in words) ([10]; comment on Table II): less advantageous; activity on Leishmania amazonensis (in words) ([5]; comment on Table II): marked activity; activity on Trypanosoma cruzi (in words) ([6]; comment on Table III): less advantageous
3 | C[Si](C)(C)C#Cc1ccc2ccccc2n1 [Quinoline 26] | – | – | – | – | – | – | – | – | 3 | 1.56 | 0.9 | 8 | L. donovani IC50 [8, 13]: 1.7 µg/mL; L. infantum (IPZ229/1/89) IC50 [9, 13]: 10.9 µg/mL; L. amazonensis IC100 ([5]; listed as 26): 12.5 µg/mL
4 | CCCCCc1ccc2ccccc2n1 [Quinoline 20] | – | – | – | – | – | – | >50 | – | 9 | >100 | 2 | 19 | IC50 ([2]; circulating forms, culturing for 48 hours): 13 µM
